Test results: patent publication US12404285B2, “KRAS G12D proteolysis targeting chimeras” (PAQ Therapeutics Inc., priority 2022, dated 2025)

The molecules below were run against T1, KRAS (G12D)-HiBit in AsPc-1-KRAS (G12D)-HiBit-KI cell (Homo sapiens, UniProt P01116, G12D) (assay: G12D HiBit assay). Settings: 24 hours compound treatment, absolute DC50, read-out: Average PHA DC50.
T1 construct: host or cells: AsPc-1-KRAS (G12D)-HiBit-KI cells (knock-in line)
Type: cell-based
Method: Day 1. Prepared the culture medium for AsPc-1-KRAS (G12D)-HiBit-KI cell (Pharmaron) using RPMI 1640 medium (Gibco, 11875093) with 10% FBS (Gibco, 10099141C) and 1% Penicillin-Streptomycin Liquid (Solarbio, P1400). Cultivated cells in T-75 flasks in a cell culture incubator (Thermo, Model: 371) at 37° C., 5% CO2. Allowed cells to reach approximately 80% confluence before splitting. Rinsed cultivated cells in T-75 flasks with 5 mL PBS (Solarbio, P1020-500). Aspirated off PBS, added 1.5 mL trypsin (Invitrogen, #25300), and incubated at 37° C. for approximately 5 minutes or until the cells detached. Inactivated trypsin by adding excessive serum containing medium. Harvested the cells from flask into cell culture medium and counted the cell number. Seeded AsPc-1-KRAS (G12D)-HiBit-KI cell into 384-well plate (Corning, 3570) (cell density: 5×10^3 cells/well in 50 μL medium) in RPMI 1640 medium and incubated overnight at 37° C. and 5% CO2.
Day 2. Test compounds were dissolved at 0.3 mM in DMSO (Solarbio, D8371) as stock solution. Transferred 45 μL of stock solution to a 384-well plate (Labcyte, 001-14555). Performed 3-fold, 10-points dilution via transferring 15 μL compound into 30 μL DMSO by using TECAN liquid handler (TECAN, Freedom EVO200). The compound plates were spin at room temperature at 1,000 RPM for 1 minute (Eppendorf, 5810R). Transferred 50 nL of diluted compounds from compound source plate into the cell plate by Echo (Labcyte, 550) to achieve final concentrations of 300 nM, 100 nM, 33.3 nM, 11.1 nM, 3.7 nM, 1.23 nM, 0.41 nM, 0.14 nM, 0.046 nM and 0.015 nM, then mixed the cell plate on a plate shaker (Yoning, WZ-4) for 15 seconds at 900 rpm. After compound treatment for 24 hours, removed the plate from incubators and equilibrated at room temperature for 15 minutes. Prepared the HiBit reagent (Promega, N3040) by mixing 10 mL of Nano-Glo®-HiBiT Lytic Buffer with 200 μL of Nano-Glo®-HiBiT Lytic Substrate and 100 μL of LgBiT Protein. Added 20 μL of HiBit reagent into each well of the cell plate and spun the plates at room temperature at 1,000 RPM for 1 minute. Then shook the plates at 600 RPM at room temperature for 20 minutes using a plate shaker (Yoning, WZ-4), and read the luminescence by EnVision (PerkinElmer, 2105-0020).
The inhibition activity was calculated using the following formula: HiBit-G12D level (%)=100%×[Luminescence(Sample)/Mean of Luminescence (HC)] where HC (high control) is obtained from cells treated with 0.1% DMSO only.
Absolute DC50 was calculated by fitting the curve using GraphPad Prism v8.0.2 (analyis 263): Y=Bottom+(100−Bottom)/(1+10^(Log AbsoluteIC50−X)*HillSlope+log((100−Bottom)/(50−Bottom)−1)))
The data are reported in Table 3, wherein “+++”=DC50 less than 100 nM, “++”=DC50 greater than or equal to 100 nM and less than 300 nM; “+”=DC50 greater than or equal to 300 nM.

T1 sequence (P01116 1-188 isoform P01116-2 G12D): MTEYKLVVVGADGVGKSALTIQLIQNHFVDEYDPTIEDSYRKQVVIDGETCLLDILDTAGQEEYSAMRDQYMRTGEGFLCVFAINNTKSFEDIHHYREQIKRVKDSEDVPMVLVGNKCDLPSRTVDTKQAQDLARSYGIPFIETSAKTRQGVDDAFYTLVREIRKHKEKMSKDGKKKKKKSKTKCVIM

| Structure (SMILES) | DC50 [µM] |
| --- | --- |
| C#Cc1c(F)ccc2cccc(-c3ncc4c(N5CC6CCC(C5)N6)nc(OC[C@@]56CCCN5[C@H](COC(=O)N5CCC(CN7CCC(c8cccc9c8n(C)c(=O)n9C8CCC(=O)N(C)C8=O)CC7)CC5)CC6)nc4c3F)c12 (stereo partly drawn) [Compound 79] | ≥ 0.3 |
| C#Cc1c(F)ccc2cccc(-c3ncc4c(N5CC6CCC(C5)N6)nc(OC[C@@]56CCCN5[C@H](COC(=O)N5CCC(COC7CCN(Cc8cccc9c8n(C)c(=O)n9C8CCC(=O)NC8=O)CC7)CC5)CC6)nc4c3F)c12 (stereo partly drawn) [Compound 128, [(3S,8S)-8-[[4-(3,8-diazabicyclo[3.2.1]octan-3-yl)-7-(8-ethynyl-7-fluoro-1-naphthyl)-8-fluoro-pyrido[4,3-d]pyrimidin-2-yl]oxymethyl]-1,2,3,5,6,7-hexahydropyrrolizin-3-yl]methyl4-[[1-[[1-(2,6-dioxo-3-piperidyl)-3-methyl-2-oxo-benzimidazol-4-yl]methyl]-4-piperidyl]oxymethyl]piperidine-1-carboxylate] | < 0.1 |
| C#Cc1c(F)ccc2cccc(-c3ncc4c(N5C[C@H]6CC[C@@H](C5)N6)nc(OC[C@@]56CCCN5[C@H](COC(=O)N5CCC(CC7CCN(c8ccc9c(c8)n(C)c(=O)n9C8CCC(=O)NC8=O)CC7)CC5)CC6)nc4c3F)c12 (stereo partly drawn) [Compound 90, ((3S,7aS)-7a-(((4-((1R,5S)-3,8-Diazabicyclo[3.2.1]octan-3-yl)-7-(8-ethynyl-7-fluoronaphthalen-1-yl)-8-fluoropyrido[4,3-d]pyrimidin-2-yl)oxy)methyl)hexahydro-1H-pyrrolizin-3-yl)methyl4-((1-(1-(2,6-dioxopiperidin-3-yl)-3-methyl-2-oxo-2,3-dihydro-1H-benzo[d]imidazol-5-yl)piperidin-4-yl)methyl)piperidine-1-carboxylate] | < 0.1 |
| C#Cc1c(F)ccc2cccc(-c3ncc4c(N5CC6CCC(C5)N6)nc(OC[C@@]56CCCN5[C@H](COC(=O)N5CCN(C7CCN(Cc8cccc9c8n(C)c(=O)n9C8CCC(=O)NC8=O)CC7)CC5)CC6)nc4c3F)c12 (stereo partly drawn) [Compound 64, [(3S,8S)-8-[[4-(3,8-Diazabicyclo[3.2.1]octan-3-yl)-7-(8-ethynyl-7-fluoro-1-naphthyl)-8-fluoro-pyrido[4,3-d]pyrimidin-2-yl]oxymethyl]-1,2,3,5,6,7-hexahydropyrrolizin-3-yl]methyl 4-[1-[[1-(2,6-dioxo-3-piperidyl)-3-methyl-2-oxo-benzimidazol-4-yl]methyl]-4-piperidyl]piperazine-1-carboxylate] | < 0.1 |
| C#Cc1c(F)ccc2cccc(-c3ncc4c(N5CC6CCC(C5)N6)nc(OC[C@@]56CCCN5[C@H](COC(=O)N5CCC(CCOCC#Cc7ccc8c(c7)n(C)c(=O)n8C7CCC(=O)NC7=O)CC5)CC6)nc4c3F)c12 (stereo partly drawn) [Compound 105, [(3S,8S)-8-[[4-(3,8-diazabicyclo[3.2.1]octan-3-yl)-7-(8-ethynyl-7-fluoro-1-naphthyl)-8-fluoro-pyrido[4,3-d]pyrimidin-2-yl]oxymethyl]-1,2,3,5,6,7-hexahydropyrrolizin-3-yl]methyl 4-[2-[3-[1-(2,6-dioxo-3-piperidyl)-3-methyl-2-oxo-benzimidazol-5-yl]prop-2-ynoxy]ethyl]piperidine-1-carboxylate] | < 0.1 |
| C#Cc1c(F)ccc2cccc(-c3ncc4c(N5CC6CCC(C5)N6)nc(OC[C@@]56CCCN5[C@H](COC(=O)N5CC7(CC(CCc8cccc9c8n(C)c(=O)n9C8CCC(=O)NC8=O)C7)C5)CC6)nc4c3F)c12 (stereo partly drawn) [Compound 61, [(3S,8S)-8-[[4-(3,8-diazabicyclo[3.2.1]octan-3-yl)-7-(8-ethynyl-7-fluoro-1-naphthyl)-8-fluoro-pyrido[4,3-d]pyrimidin-2-yl]oxymethyl]-1,2,3,5,6,7-hexahydropyrrolizin-3-yl]methyl 6-[2-[1-(2,6-dioxo-3-piperidyl)-3-methyl-2-oxo-benzimidazol-4-yl]ethyl]-2-azaspiro[3.3]heptane-2-carboxylate] | 0.1 to 0.3 |
| C#Cc1c(F)ccc2cccc(-c3ncc4c(N5CC6CCC(C5)N6)nc(OC[C@@]56CCCN5[C@H](COC(=O)N5CCC7(CC5)CCN(c5cccc8c5n(C)c(=O)n8C5CCC(=O)NC5=O)CC7)CC6)nc4c3F)c12 (stereo partly drawn) [Compound 129, [(3S,8S)-8-[[4-(3,8-Diazabicyclo[3.2.1]octan-3-yl)-7-(8-ethynyl-7-fluoro-1-naphthyl)-8-fluoro-pyrido[4,3-d]pyrimidin-2-yl]oxymethyl]-1,2,3,5,6,7-hexahydropyrrolizin-3-yl]methyl9-[1-(2,6-dioxo-3-piperidyl)-3-methyl-2-oxo-benzimidazol-4-yl]-3,9-diazaspiro[5.5]undecane-3-carboxylate] | ≥ 0.3 |
| C#Cc1c(F)ccc2cccc(-c3ncc4c(N5CC6CCC(C5)N6)nc(OC[C@@]56CCCN5[C@H](COC(=O)N5CCC(N7CCC(Cc8ccc9c(c8)n(C)c(=O)n9C8CCC(=O)NC8=O)CC7)CC5)CC6)nc4c3F)c12 (stereo partly drawn) [Compound 75] | 0.1 to 0.3 |
| C#Cc1c(F)ccc2cccc(-c3ncc4c(N5CC6CCC(C5)N6)nc(OC[C@@]56CCCN5[C@H](COC(=O)NCCCC(=O)N5CCC(c7ccc8c(c7)n(C)c(=O)n8C7CCC(=O)NC7=O)CC5)CC6)nc4c3F)c12 (stereo partly drawn) [Compound 45] | ≥ 0.3 |
| CCc1c(F)ccc2cc(O)cc(-c3ncc4c(N5CCCC6(CCO6)C5)nc(OC[C@@]56CCCN5[C@H](COC(=O)N5CCC(OCCCc7cccc8c7n(C)c(=O)n8C7CCC(=O)NC7=O)CC5)CC6)nc4c3F)c12 (stereo partly drawn) [Compound 34] | < 0.1 |

More lines, now with the values ahead:

| DC50 [µM] | Structure (SMILES) |
| --- | --- |
| ≥ 0.3 | C#Cc1c(F)ccc2cccc(-c3ncc4c(N5CC6CCC(C5)N6)nc(OC[C@@]56CCCN5[C@H](COC(=O)N5CCC(C7CCN(c8cccc9c8n(C)c(=O)n9C8CCC(=O)NC8=O)CC7)CC5)CC6)nc4c3F)c12 (stereo partly drawn) [Compound 127, [(3S,8S)-8-[[4-(3,8-Diazabicyclo[3.2.1]octan-3-yl)-7-(8-ethynyl-7-fluoro-1-naphthyl)-8-fluoro-pyrido[4,3-d]pyrimidin-2-yl]oxymethyl]-1,2,3,5,6,7-hexahydropyrrolizin-3-yl]methyl 4-[1-[1-(2,6-dioxo-3-piperidyl)-3-methyl-2-oxo-benzimidazol-4-yl]-4-piperidyl]piperidine-1-carboxylate] |
| < 0.1 | C#Cc1c(F)ccc2cccc(-c3ncc4c(N5CC6CCC(C5)N6)nc(OC[C@@]56CCCN5[C@H](COC(=O)N5CCC(CCC7CCN(Cc8ccc9c(c8)n(C)c(=O)n9C8CCC(=O)NC8=O)CC7)CC5)CC6)nc4c3F)c12 (stereo partly drawn) [Compound 69] |
| 0.1 to 0.3 | C#Cc1c(F)ccc2cccc(-c3ncc4c(N5CC6CCC(C5)N6)nc(OC[C@]56CCCN5[C@@H](COC(=O)N5CCC(CC7CCN(Cc8cccc9c8n(C)c(=O)n9C8CCC(=O)NC8=O)CC7)CC5)CC6)nc4c3F)c12 (stereo partly drawn) [Compound 77] |
| ≥ 0.3 | C#Cc1c(F)ccc2cccc(-c3ncc4c(N5CC6CCC(C5)N6)nc(OC[C@@]56CCCN5[C@H](COC(=O)NCCCN(C)C5CCN(c7cccc8c7n(C)c(=O)n8C7CCC(=O)NC7=O)CC5)CC6)nc4c3F)c12 (stereo partly drawn) [Compound 109, [(3S,8S)-8-[[4-(3,8-Diazabicyclo[3.2.1]octan-3-yl)-7-(8-ethynyl-7-fluoro-1-naphthyl)-8-fluoro-pyrido[4,3-d]pyrimidin-2-yl]oxymethyl]-1,2,3,5,6,7-hexahydropyrrolizin-3-yl]methylN-[3-[[1-[1-(2,6-dioxo-3-piperidyl)-3-methyl-2-oxo-benzimidazol-4-yl]-4-piperidyl]-methyl-amino]propyl]carbamate] |
| < 0.1 | C#Cc1c(F)ccc2cccc(-c3ncc4c(N5CC6CCC(C5)N6)nc(OC[C@@]56CCCN5[C@H](COC(=O)N5CC(OC7CCN(Cc8cccc9c8n(C)c(=O)n9C8CCC(=O)NC8=O)CC7)C5)CC6)nc4c3F)c12 (stereo partly drawn) [Compound 83, [(3S,8S)-8-[[4-(3,8-Diazabicyclo[3.2.1]octan-3-yl)-7-(8-ethynyl-7-fluoro-1-naphthyl)-8-fluoro-pyrido[4,3-d]pyrimidin-2-yl]oxymethyl]-1,2,3,5,6,7-hexahydropyrrolizin-3-yl]methyl3-[[1-[[1-(2,6-dioxo-3-piperidyl)-3-methyl2-oxo-benzimidazol-4-yl]methyl]-4-piperidyl]oxy]azetidine-1-carboxylate] |
